The test system of the first assay is HIV.
Test: not given
As to conditions: compared with zidovudine, zalcitabine, didanosine and stavudine; WO 91/17159; cited from earlier work.
On to `Nc1ccn([C@@H]2CS[C@H](CO)O2)c(=O)n1` [lamivudine, (2R-cis)-4-amino-1-(2-hydroxymethyl-1,3-oxathiolan-5-yl)-2(1H)-pyrimidinone], for which the “antiviral potency and toxicity compared with other RT-inhibitors” value is “more potent and less toxic antiviral than zidovudine, zalcitabine, didanosine and stavudine”.

In a further assay the test system is limphocitic human cell line MT4 infected by HIV-1 strain BRU. Briefly: anti-HIV activity on lymphocytes (MT4 cells): inhibition of viral reverse transcriptase activity in culture supernatant. Type of assay: cell-based, HIV-1 strain BRU; human MT4 cells. The settings on record: Human immunodeficiency virus 1, Lymphocyte, MT4 human lymphocytes infected by HIV-1 BRU, 7-8 days culture at 37° C. As to the method:
(§1) The antiviral activity of the compounds of formula I, object of the present invention, was evaluated on the MT4 human lymphocytes infected by HIV-1 BRU strain and on fresh human macrophages infected by the macrophage-trophic HIV-1 PAR strain.
(§2) Both kinds of experiment were carried out following conventionally used methods for the evaluation of reverse transcriptase inhibitors and are predictive of the in vivo anti-HIV activity.
(§3) The anti-HIV activity of the compounds of formula I was evaluated on the limphocitic human cell line MT4 infected by HIV-1 strain BRU and on fresh human macrophages infected by the macrophage-trophic HIV- 1 PAR strain.
The cells, infected and treated with the compounds of formula I, were cultured at 37° C. for 7-8 days. Every 3-4 days the culture supernatant was withdrawn and substituted with fresh medium containing or not the compounds of formula I. The anti-HIV activity was evaluated at the end of the experiment as 50% inhibition (IC50) of the activity of the viral reverse transcriptase in the supernatant of infected cultures in comparison with the control cultures.
The used methodologies were described in the papers published by Rey M. A. et al. on Biochem. Biophys. Res. Commun. (1984), 121, 126-133 and on Virology (1991), 181, 165-171.
(§4) In the following table the data of anti-HIV activity on both the cell lines for some representative compounds of formula I are reported.
In general, IC50 refers to the point on the concentration scale where inhibition reaches its midpoint. Regarding `Nc1ccn([C@@H]2CS[C@H](CO)O2)c(=O)n1` (relative stereo) [BCH-189, 4-amino-1-(2-hydroxymethyl-1,3-oxathiolan-5-yl)-2(1H)-pyrimidinone, reference compound], the IC50 worked out at 0.7 µM.
On the same count and under the same terms, next, `CC(C)(C)OC(=O)N(CCCCCC(=O)OC[C@@H]1O[C@H](n2ccc(N)nc2=O)CS1)CCCCCN(Cc1ccccc1)C(=O)OC(C)(C)C` (relative stereo) [Compound 1, (±)-4-Amino-1-[2-[6-[5-(N'-tert-butoxycarbonyl-N'-phenylmethylamino)-N-tert-butoxycarbonyl-pentylamino]-hexanoyloxymethyl]-1,3-oxathiolan-5-yl]-2(1H)-pyrimidinone]: 0.001 to 0.005 µM; `CC(C)(C)OC(=O)N(CCCCCC(=O)OC[C@@H]1O[C@H](n2ccc(N)nc2=O)CS1)Cc1ccccc1` (relative stereo) [Compound 4, (±)-4-Amino-1-[2-[6-(N-tert-butoxycarbonyl-N-phenylmethylamino)-hexanoyloxy-methyl]-1,3-oxathiolan-5-yl]-2(1H)-pyrimidinone]: 0.001 µM; `CC(C)(C)OC(=O)N(CCCCCC(=O)OC[C@@H]1O[C@H](n2ccc(N)nc2=O)CS1)Cc1cccc(C(F)(F)F)c1` (relative stereo) [Compound 6, (±)-4-Amino-1-[2-[6-[N-tert-butoxycarbonyl-N-(3trifluoromethylphenyl)methyl-amino]-hexanoyloxymethyl-]1,3-oxathiolan-5-yl]-2(1H)-pyrimidinone]: 0.004 µM.
Take `CC(C)(C)OC(=O)N(CCCCCC(=O)OC[C@@H]1O[C@H](n2ccc(N)nc2=O)CS1)Cc1ccccc1C(F)(F)F` (relative stereo) [Compound 7, (±)-4-Amino-1-[2-[6-[N-tert-butoxycarbonyl-N-(2-trifluoromethyl-phenyl)methyl-amino]-hexanoyloxymethyl-]-1,3-oxathiolan-5-yl]-2(1H)-pyrimidinone]: the IC50 was in the range of 0.001 to 0.01 µM.
On the same count and under the same terms, next, `CC(C)(C)OC(=O)N(CCCCCCN(Cc1ccccc1C(F)(F)F)C(=O)OC(C)(C)C)CCCCCC(=O)OC[C@@H]1O[C@H](n2ccc(N)nc2=O)CS1` (relative stereo) [Compound 8, (±)-4-Amino-1-[2-[6-[6-[N'-tert-butoxycarbonyl-N'-(2-trifluoromethylphenyl)methylamino]-N-tert-butoxycarbonyl-hexylamino]-hexanoyloxymethyl]-1,3-oxathiolan-5-yl]-2(1H)-pyrimidinone]: 0.1 µM; `CCOC(=O)N(CCCCCC(=O)OC[C@@H]1O[C@H](n2ccc(N)nc2=O)CS1)Cc1ccccc1` (relative stereo) [Compound 9, (±)-4-Amino-1-[2-[6-(N-ethoxycarbonyl-N-phenylmethylamino)-hexanoyloxymethyl]-1,3-oxathiolan-5-yl]-2(1H)-pyrimidinone]: 0.001 to 0.05 µM; `CC(C)(C)OC(=O)N(CC(=O)OC[C@@H]1O[C@H](n2ccc(N)nc2=O)CS1)Cc1ccccc1` (relative stereo) [Compound 10, (±)-4-Amino-1-[2-[(N-tert-butoxycarbonyl-N-phenylmethylamino)-acetyloxymethyl]-1,3-oxathiolan-5-yl]-2(1H)-pyrimidinone]: 0.01 to 0.1 µM.
On the same count and under the same terms, next, `Nc1ccn([C@@H]2CS[C@H](COC(=O)CCCCCNCCCCCNCc3ccccc3)O2)c(=O)n1` (relative stereo) [Compound 48, (±)-4-Amino-1-[2-[6-[5-(phenylmethylamino)pentylamino]-hexanoyloxymethyl]-1,3-oxathiolan-5-yl]-2(1H)-pyrimidinone]: 0.15 µM.
On the same count and under the same terms, next, `Nc1ccn([C@@H]2CS[C@H](COC(=O)CCCCNCCCCCCNCc3ccccc3)O2)c(=O)n1` (relative stereo) [Compound 49, (±)-4-Amino-1-[2-[5-[6-(phenylmethylamino)hexylamino]-pentanoyloxymethyl]-1,3-oxathiolan-5-yl]-2(1H)-pyrimidinone]: 0.9 µM; `Nc1ccn([C@@H]2CS[C@H](COC(=O)CCCCCNCc3ccccc3)O2)c(=O)n1` (relative stereo) [Compound 52, (±)-4-Amino-1-[2-[6-(phenylmethylamino)hexanoyloxymethyl]-1,3-oxathiolan-5-yl]-2(1H)-pyrimidinone]: 0.1 to 1 µM; `Nc1ccn([C@@H]2CS[C@H](COC(=O)CCCCCNCc3cccc(C(F)(F)F)c3)O2)c(=O)n1` (relative stereo) [Compound 53, (±)-4-Amino-1-[2-[6-[(3trifluorophenyl)methylamino]-hexanoyloxymethyl]-1,3-oxathiolan-5-yl]-2(1H)-pyrimidinone]: 0.7 µM.
`Nc1ccn([C@@H]2CS[C@H](COC(=O)CCCCCNCCCCCCNCc3ccccc3C(F)(F)F)O2)c(=O)n1` (relative stereo) [Compound 54, (±)-4-Amino-1-[2-[6-[6-[(2-trifluoromethylphenyl)methylamino]-hexylamino]-hexanoyloxymethyl]-1,3-oxathiolan-5-yl]-2(1H)-pyrimidinone] displayed an IC50 of 0.8 µM.
`Nc1ccn([C@@H]2CS[C@H](COC(=O)CCCCCNCc3ccccc3C(F)(F)F)O2)c(=O)n1` (relative stereo) [Compound 55, (±)-4-Amino-1-[2-[6-[(2-trifluorophenyl)methylamino]-hexanoyloxymethyl]-1,3-oxathiolan-5-yl]-2(1H)-pyrimidinone]: the IC50 came to 0.1 µM.
Still for that read-out and setting: next, `O=C(CCCCCNCCCCCCNCc1ccccc1)Nc1ccn([C@@H]2CS[C@H](CO)O2)c(=O)n1` (relative stereo) [Compound 56, (±)-1-(2-Hydroxymethyl-1,3-oxathiolan-5-yl)-4-[6-[6-phenylmethylamino)hexylamino]-hexanoylamino]-2(1H)-pyrimidinone]: 0.13 µM.
Same read-out and setting: next, `O=C(CCCCCNCCCCCNCc1ccccc1)Nc1ccn([C@@H]2CS[C@H](CO)O2)c(=O)n1` (relative stereo) [Compound 57, (±)-1-(2-Hydroxymethyl-1,3-oxathiolan-5-yl)-4-[6-[5-(phenylmethylamino)pentylamino]-hexanoylamino]-2(1H)-pyrimidinone]: 0.41 µM; `CC(C)(C)OC(=O)N(CCCCCC(=O)OC[C@H]1O[C@@H](n2ccc(N)nc2=O)CS1)CCCCCN(Cc1ccccc1)C(=O)OC(C)(C)C` [Compound 2, (2S, 5R)-4-Amino-1-[2-[6-[5-(N'-tert-butoxycarbonyl-N'-phenylmethylamino)-N-tert-butoxycarbonyl-pentylamino]-hexanoyloxymethyl]-1,3-oxathiolan-5-yl]-2(1H)-pyrimidinone]: less than 0.1 µM.

The next assay concerns fresh human macrophages infected by the macrophage-trophic HIV-1 PAR strain. Briefly: anti-HIV activity on macrophages: inhibition of viral reverse transcriptase activity in culture supernatant at peak. Type of assay: cell-based, HIV-1 PAR strain; human macrophages. The settings on record: Human immunodeficiency virus 1, Macrophage; fresh human macrophages infected by HIV-1 PAR; about 1 month culture at 37° C.; at peak of reverse transcriptase expression. As to the method:
as §1, §2, §3
The cells, infected and treated with the compounds of formula I, were cultured at 37° C. for about 1 month. Every 3-4 days the culture supernatant was withdrawn and substituted with fresh medium containing or not the compounds of formula I. The viral reverse-transcriptase activity, determined in the culture supernatant every 3-4 days, was followed up to the end of the experiment by determining the maximum peak of the enzyme expression. In the correspondence of such a peak the anti-HIV activity was evaluated as 50% inhibition (IC50) of the enzymatic activity in the supernatant of the infected and treated cultures in comparison with the control ones.
The used methodology was described by Schmidtmayerova H. et al. on Virology (1992), 190, 124-133.
as §4
For `Nc1ccn([C@@H]2CS[C@H](CO)O2)c(=O)n1` (relative stereo) [BCH-189, 4-amino-1-(2-hydroxymethyl-1,3-oxathiolan-5-yl)-2(1H)-pyrimidinone, reference compound], inhibition was half-maximal at 0.1 µM (IC50).
Same read-out and setting: next, `O=C(CCCCCNCCCCCCNCc1ccccc1)Nc1ccn([C@@H]2CS[C@H](CO)O2)c(=O)n1` (relative stereo) [Compound 56, (±)-1-(2-Hydroxymethyl-1,3-oxathiolan-5-yl)-4-[6-[6-phenylmethylamino)hexylamino]-hexanoylamino]-2(1H)-pyrimidinone]: 0.1 µM.
On the same count and under the same terms, next, `O=C(CCCCCNCCCCCNCc1ccccc1)Nc1ccn([C@@H]2CS[C@H](CO)O2)c(=O)n1` (relative stereo) [Compound 57, (±)-1-(2-Hydroxymethyl-1,3-oxathiolan-5-yl)-4-[6-[5-(phenylmethylamino)pentylamino]-hexanoylamino]-2(1H)-pyrimidinone]: 0.1 µM.

Source of the values: patent publication US6214833A, “Pyrimidinone-1,3-oxathiolane derivatives with antiviral activity” (Zambon Group S.p.A., priority 1997, dated 2001).
